Test results reported in patent US6610853B1, “N-(phenylsulfonyl)picolinamide derivatives, process for producing the same, and herbicide” (Kureha Kagaku Kogyo K.K., priority 2000, dated 2003).

Key:
Experiment in all cases: Test on herbicidal activity by foliar application
Format in all cases: in vivo
Conditions in all cases: foliar spray, 1 kg/ha, plants at 1-2 leaf stage in pots, evaluated 14 days after spraying
Stellaria media = system: Stellaria media
In short: (§1)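 Post-emergence test: dissolved wettable-powder formulation applied at 1 kg/ha to foliage of potted plants (1-2 leaves); herbicidal effect graded 14 days on, grades 1-5 covering <30% to ≥90% inhibition.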

Amaranthus retroflexus = system: Amaranthus retroflexus
In short: as §1

Galium aparine = system: Galium aparine
In short: as §1

Sinapis arvensis = system: Sinapis arvensis
In short: as §1

Setaria viridis = system: Setaria viridis
In short: as §1

Matricaria chamomilla = system: Matricaria chamomilla
In short: as §1

Veronica hederaefolia = system: Veronica hederaefolia
In short: as §1

Convolvulus arvensis = system: Convolvulus arvensis
In short: as §1

Solanum nigrum = system: Solanum nigrum
In short: as §1

Bidens pilosa = system: Bidens pilosa
In short: as §1

Abutilon theophrasti = system: Abutilon theophrasti
In short: as §1

With COc1ccc(C(=O)NS(=O)(=O)c2ccccc2OC(F)(F)F)nc1 [Compound I-774, N-[(2-Trifluoromethoxyphenyl)sulfonyl]-5-methoxy-2-pyridinecarboxamide] the “Herbicidal activity, Stellaria media” value (Stellaria media) was 5 (90% or more inhibition), the “Herbicidal activity, Amaranthus retroflexus” value (Amaranthus retroflexus) was 4 (70% or more-90% inhibition) and the “Herbicidal activity, Galium aparine” value (Galium aparine) was 4 (70% or more-90% inhibition). The “Herbicidal activity, Sinapis arvensis” value (Sinapis arvensis) was 5 (90% or more inhibition), the “Herbicidal activity, Setaria viridis” value (Setaria viridis) was 5 (90% or more inhibition) and the “Herbicidal activity, Matricaria chamomilla” value (Matricaria chamomilla) was 5 (90% or more inhibition). For the same compound, the “Herbicidal activity, Veronica hederaefolia” value (Veronica hederaefolia) was 5 (90% or more inhibition), the “Herbicidal activity, Convolvulus arvensis” value (Convolvulus arvensis) was 4 (70% or more-90% inhibition) and the “Herbicidal activity, Solanum nigrum” value (Solanum nigrum) was 5 (90% or more inhibition). For the same compound, the “Herbicidal activity, Bidens pilosa” value (Bidens pilosa) was 5 (90% or more inhibition) and the “Herbicidal activity, Abutilon theophrasti” value (Abutilon theophrasti) was 5 (90% or more inhibition).
With O=C(NS(=O)(=O)c1ccccc1OC(F)(F)F)c1cccc(Cl)n1 [Compound I-771, N-[[2-Trifluoromethoxyphenyl]sulfonyl]-6-chloro-2-pyridinecarboxamide] the “Herbicidal activity, Stellaria media” value (Stellaria media) was 5 (90% or more inhibition), the “Herbicidal activity, Amaranthus retroflexus” value (Amaranthus retroflexus) was 5 (90% or more inhibition) and the “Herbicidal activity, Galium aparine” value (Galium aparine) was 5 (90% or more inhibition). For the same compound, the “Herbicidal activity, Sinapis arvensis” value (Sinapis arvensis) was 5 (90% or more inhibition), the “Herbicidal activity, Setaria viridis” value (Setaria viridis) was 1 (less than 30% inhibition) and the “Herbicidal activity, Matricaria chamomilla” value (Matricaria chamomilla) was 5 (90% or more inhibition). For the same compound, the “Herbicidal activity, Veronica hederaefolia” value (Veronica hederaefolia) was 5 (90% or more inhibition), the “Herbicidal activity, Convolvulus arvensis” value (Convolvulus arvensis) was 4 (70% or more-90% inhibition) and the “Herbicidal activity, Solanum nigrum” value (Solanum nigrum) was 5 (90% or more inhibition). The “Herbicidal activity, Bidens pilosa” value (Bidens pilosa) was 5 (90% or more inhibition) and the “Herbicidal activity, Abutilon theophrasti” value (Abutilon theophrasti) was 5 (90% or more inhibition).
With COC(=O)c1ccccc1S(=O)(=O)NC(=O)c1ccc(OC)c(OC)n1 [Compound I-259, 2-[[[(5,6-Dimethoxypyridin-2-yl)carbonyl]-amino]sulfonyl]benzoic Acid Methyl Ester] the “Herbicidal activity, Stellaria media” value (Stellaria media) was 5 (90% or more inhibition), the “Herbicidal activity, Amaranthus retroflexus” value (Amaranthus retroflexus) was 5 (90% or more inhibition) and the “Herbicidal activity, Galium aparine” value (Galium aparine) was 5 (90% or more inhibition). The “Herbicidal activity, Sinapis arvensis” value (Sinapis arvensis) was 5 (90% or more inhibition), the “Herbicidal activity, Setaria viridis” value (Setaria viridis) was 4 (70% or more-90% inhibition) and the “Herbicidal activity, Matricaria chamomilla” value (Matricaria chamomilla) was 4 (70% or more-90% inhibition). The “Herbicidal activity, Veronica hederaefolia” value (Veronica hederaefolia) was 4 (70% or more-90% inhibition), the “Herbicidal activity, Convolvulus arvensis” value (Convolvulus arvensis) was 3 (50% or more-70% inhibition) and the “Herbicidal activity, Solanum nigrum” value (Solanum nigrum) was 4 (70% or more-90% inhibition). The “Herbicidal activity, Bidens pilosa” value (Bidens pilosa) was 4 (70% or more-90% inhibition) and the “Herbicidal activity, Abutilon theophrasti” value (Abutilon theophrasti) was 5 (90% or more inhibition).
With COc1ccc(C(=O)NS(=O)(=O)c2c(Cl)cccc2Cl)nc1Cl [Compound I-618, N-[(2,6-Dichlorophenyl)sulfonyl]-6-chloro-5-methoxy-2-pyridinecarboxamide] the “Herbicidal activity, Stellaria media” value (Stellaria media) was 5 (90% or more inhibition), the “Herbicidal activity, Amaranthus retroflexus” value (Amaranthus retroflexus) was 2 (30% or more-50% inhibition) and the “Herbicidal activity, Galium aparine” value (Galium aparine) was 4 (70% or more-90% inhibition). For the same compound, the “Herbicidal activity, Sinapis arvensis” value (Sinapis arvensis) was 5 (90% or more inhibition), the “Herbicidal activity, Setaria viridis” value (Setaria viridis) was 2 (30% or more-50% inhibition) and the “Herbicidal activity, Matricaria chamomilla” value (Matricaria chamomilla) was 5 (90% or more inhibition). For the same compound, the “Herbicidal activity, Veronica hederaefolia” value (Veronica hederaefolia) was 5 (90% or more inhibition), the “Herbicidal activity, Convolvulus arvensis” value (Convolvulus arvensis) was 3 (50% or more-70% inhibition) and the “Herbicidal activity, Solanum nigrum” value (Solanum nigrum) was 5 (90% or more inhibition). For the same compound, the “Herbicidal activity, Bidens pilosa” value (Bidens pilosa) was 5 (90% or more inhibition) and the “Herbicidal activity, Abutilon theophrasti” value (Abutilon theophrasti) was 5 (90% or more inhibition).
With COc1cc(Cl)nc(C(=O)NS(=O)(=O)c2ccccc2S(=O)(=O)N(C)C)c1 [Compound I-885, 6-Chloro-4-methoxy-N-[[2-(N,N-dimethylaminosulfonyl)phenyl]sulfonyl]-2-pyridinecarboxamide] the “Herbicidal activity, Stellaria media” value (Stellaria media) was 5 (90% or more inhibition), the “Herbicidal activity, Amaranthus retroflexus” value (Amaranthus retroflexus) was 5 (90% or more inhibition) and the “Herbicidal activity, Galium aparine” value (Galium aparine) was 5 (90% or more inhibition). The “Herbicidal activity, Sinapis arvensis” value (Sinapis arvensis) was 5 (90% or more inhibition), the “Herbicidal activity, Setaria viridis” value (Setaria viridis) was 5 (90% or more inhibition) and the “Herbicidal activity, Matricaria chamomilla” value (Matricaria chamomilla) was 5 (90% or more inhibition). For the same compound, the “Herbicidal activity, Veronica hederaefolia” value (Veronica hederaefolia) was 4 (70% or more-90% inhibition), the “Herbicidal activity, Convolvulus arvensis” value (Convolvulus arvensis) was 5 (90% or more inhibition) and the “Herbicidal activity, Solanum nigrum” value (Solanum nigrum) was 5 (90% or more inhibition). For the same compound, the “Herbicidal activity, Bidens pilosa” value (Bidens pilosa) was 5 (90% or more inhibition) and the “Herbicidal activity, Abutilon theophrasti” value (Abutilon theophrasti) was 5 (90% or more inhibition).
With COc1cc(Cl)nc(C(=O)NS(=O)(=O)c2cccc(Cl)c2Cl)c1 [Compound I-345, N-[(2,3-Dichlorophenyl)sulfonyl]-6-chloro-4-methoxypyridine-2-carboxamide] the “Herbicidal activity, Stellaria media” value (Stellaria media) was 4 (70% or more-90% inhibition), the “Herbicidal activity, Amaranthus retroflexus” value (Amaranthus retroflexus) was 3 (50% or more-70% inhibition) and the “Herbicidal activity, Galium aparine” value (Galium aparine) was 4 (70% or more-90% inhibition). For the same compound, the “Herbicidal activity, Sinapis arvensis” value (Sinapis arvensis) was 5 (90% or more inhibition), the “Herbicidal activity, Setaria viridis” value (Setaria viridis) was 2 (30% or more-50% inhibition) and the “Herbicidal activity, Matricaria chamomilla” value (Matricaria chamomilla) was 4 (70% or more-90% inhibition). For the same compound, the “Herbicidal activity, Veronica hederaefolia” value (Veronica hederaefolia) was 3 (50% or more-70% inhibition), the “Herbicidal activity, Convolvulus arvensis” value (Convolvulus arvensis) was 5 (90% or more inhibition) and the “Herbicidal activity, Solanum nigrum” value (Solanum nigrum) was 5 (90% or more inhibition). The “Herbicidal activity, Bidens pilosa” value (Bidens pilosa) was 5 (90% or more inhibition) and the “Herbicidal activity, Abutilon theophrasti” value (Abutilon theophrasti) was 2 (30% or more-50% inhibition).
